Measurements from patent US7029657B2, “Nasal spray steroid formulation and method” (Balance Pharmaceuticals, Inc., priority 2002, dated 2006).

Key:
women with endometriosis = assay: Bone mineral density (BMD) of the lumbar spine by DEXA, ratio of 6 month to baseline; assay type: in vivo; conditions: deslorelin alone, another study
Protocol: Women with endometriosis treated with intranasal deslorelin (a GnRH compound) were assigned to one of three methods of estradiol add-back: (1) 50 μg/day estradiol transdermal patch, (2) 300 μg/day intranasal estradiol, or (3) 300 μg/day intranasal estradiol with 275 μg/day intranasal testosterone. Loss of bone mineral density (BMD) is a known side effect of treatment with GnRH compounds. Thus, BMD of the lumbar spine (L1–L4) of the test subjects in Example 4 was obtained bydual-energy X-ray absorptiometry (DEXA) prior to and after six months of treatment. The results are shown in Table 4 as the ratio of BMD at the six month time point (BMD6mo.) to the BMD prior to treatment (BMDbaseline).
Women with endometriosis treated with intranasal deslorelin (GnRH compound) were assigned to one of three methods of add-back: (1) 50 μg/day estradiol transdermal patch, (2) 300 μg/day intranasal estradiol, or (3) 300 μg/day intranasal estradiol with 275 μg/day intranasal testosterone. Bone mineral density (BMD) of the lumbar spine was obtained by dual-energy X-ray absorptiometry (DEXA) prior to and after six months of drug treatment. BMD changes are shown in Table 4 as the ratio of the 6 month value compared to the baseline value.

[1] = cited from earlier work

| SMILES | Ratio of 6 Month BMD to Baseline BMD, Mean (women with endometriosis) | water solubility (at 25° C., g/100 mL) [1] [g/100 mL] |
| --- | --- | --- |
| CCNC(=O)[C@@H]1CCCN1C(=O)[C@H](CCCN=C(N)N)NC(=O)[C@H](CC(C)C)NC(=O)[C@@H](Cc1c[nH]c2ccccc12)NC(=O)[C@H](Cc1ccc(O)cc1)NC(=O)[C@H](CO)NC(=O)[C@H](Cc1c[nH]c2ccccc12)NC(=O)[C@H](Cc1cnc[nH]1)NC(=O)[C@@H]1CCC(=O)N1 [Deslorelin (D), deslorelin] | 0.971 |  |
| OC[C@H]1O[C@@H]2O[C@H]3[C@H](O)[C@@H](O)[C@@H](O[C@H]4[C@H](O)[C@@H](O)[C@@H](O[C@H]5[C@H](O)[C@@H](O)[C@@H](O[C@H]6[C@H](O)[C@@H](O)[C@@H](O[C@H]7[C@H](O)[C@@H](O)[C@@H](O[C@H]8[C@H](O)[C@@H](O)[C@@H](O[C@H]9[C@H](O)[C@@H](O)[C@@H](O[C@H]%10[C@H](O)[C@@H](O)[C@@H](O[C@H]1[C@H](O)[C@H]2O)O[C@@H]%10CO)O[C@@H]9CO)O[C@@H]8CO)O[C@@H]7CO)O[C@@H]6CO)O[C@@H]5CO)O[C@@H]4CO)O[C@@H]3CO [δ-cyclodextrin] |  | 8.19 |
